Patent US20240408068A1, “Helicase Primase Inhibitors For Treating Cancer In A Combination Therapy With Oncolytic Viruses” (priority 2018, published 2024)

Experiments:
[1] = test system: HSV-2; test: In vitro activity, HSV-2 infected Vero cells; assay type: cell-based; settings: Human alphaherpesvirus 2, Vero
Description: (§1) The in vitro activity of the new compounds was measured as described in WO2017/174640 and in WO2019/068817.

[2] = test system: HSV-1 ACV resistant; test: In vitro activity, HSV-1 ACV resistant; assay type: cell-based; settings: Human alphaherpesvirus 1
Description: as §1

[3] = test system: HSV-1; test: Viral DNA (HSV-1 copies) within treated tumor samples, first oHSV experiment; assay type: in vivo, Balbc/j mice; settings: for Total HSV-1 [copy/g tumor] mean: day 19
Description: At the end of efficacy monitoring period (on day 19 post-tumor cell inoculation, around ˜3-4 h after the last treatment with test compound), all surviving mice were anesthetized using isoflurane gas anesthesia (4% induction and 2% maintain) prior to blood sampling on heparin-coated tubes by retro-orbital puncture, for plasma collection. In addition, tumors were collected, snap-frozen, and stored at −80° C. until further analysis.
The tumors were collected as described above, snap frozen in liquid nitrogen and DNA of ˜25 mg tumor samples was extracted with a QIAamp DNA Mini Kit (Cat. No. 51326) on a QIAcube machine. 10 μL of the 200 μL HSV DNA containing elution volumue was quantified with an Argene HSV R-gene kit (Ref.: 69-004B) and normalized to 1 gram tumor sample (see below).

[4] = test system: HSV-1; test: In vitro activity, HSV-1 infected Vero cells; assay type: cell-based; settings: Human alphaherpesvirus 1, Vero
Description: as §1

[5] = in vivo; cited from earlier work
[6] = test system: HSV-1; test: Survival of mice in first oHSV experiment; assay type: in vivo, Balbc/j mice; settings: high dose HSV group subsequently treated with compound
Description: Pharmacological animal groups (8 animal per group, 64 animals in total) were organized as such: • 1. Control virus-untreated group: test compound vehicle (200 μL, 5% DMSO; 0.5% hydroxypropylmethylcellulose (HPMC) in PBS) oral gavage (20 gauge needle standard suspension applicator), once a day, for 10 days and starting 72 h after virus injection for the other groups. • 2. Control virus vehicle-treated group: 50 μL of virus vehicle, intratumoral injection when tumors reached an average volume of app. 40 mm^3, with test compound vehicle, oral gavage, once a day, for 10 days and starting 72 h after vehicle virus injection. • 3. HSV-1 (quantity 1; 5×10^6 pfu)-treated group: 50 μL of HSV-1 (5×10^6), intratumoral injection when tumors reached an average volume of app. […] HSV-1 (quantity 2; 1×10^8 pfu)-treated group: 100 μL of HSV-1 (1×10^8) intratumoral injection when tumors reached an average volume of app. […] HSV-1 (quantity 1; 5×10^6 pfu)-test compound-treated group: 50 μL of HSV-1 (5×10^6), intratumoral injection when tumors reached an average volume of app. […] HSV-1 (quantity 2; 1×10^8 pfu)-test compound-treated group: 100 μL of HSV-1 (1×10^8), intratumoral injection when tumors reached an average volume of app. […]
As previously mentioned, tumor volume and body weight of the animals were measured and recorded three times per week. […]

Cc1nc(N(C)C(=O)Cc2ccc(-c3cc(F)ccc3F)cc2)sc1[S@@](C)(=N)=O [Example 7(−), (−)-(S)-2-(2′,5′-Difluoro-[1,1′-biphenyl]-4-yl)-N-methyl-N-(4-methyl-5-(S-methylsulfonimidoyl)thiazol-2-yl)acetamide]
IC50 [1]: 10 to 50 nM | IC50 [2]: 10 to 50 nM | Total HSV-1 [copy/g tumor] mean ([3]; Group 5: HSV-1 5 × 10^6 pfu + 10 mg/kg 72 pi): 154493 copy/g tumor | Total HSV-1 [copy/g tumor] mean ([3]; Group 6: HSV-1 5 × 10^6 pfu + 10 mg/kg 72 pi + αPD1 + αCTLA-4): 51301 copy/g tumor | Total HSV-1 [copy/g tumor] mean ([3]; Group 7: HSV-1 1 × 10^8 pfu + 10 mg/kg 72 hpi): 74312 copy/g tumor | Total HSV-1 [copy/g tumor] mean ([3]; Group 8: HSV 5 × 10^6 pfu + 10 mg/kg 2 h pi): 10600 copy/g tumor | reduction in viral DNA load ([3]; treatment 2 hours post infection compared to 72 hours delayed treatment): highest reduction in viral DNA load | IC50 [4]: 10 to 50 nM | brain exposure [5]: highest brain exposure reported to date | rescue of mice from virus-induced death [6]: the mice can be rescued
